Results reported in ChEMBL document CHEMBL5370557, “Structure-based discovery of IHMT-IDH1-053 as a potent irreversible IDH1 mutant selective inhibitor” (Eur J Med Chem, 2023).

Legend:
[1] = molecular target: T1, Isocitrate dehydrogenase [NADP] cytoplasmic (Homo sapiens, UniProt O75874, R132H); experiment: Inhibition of IDH1 R132H mutant (unknown origin) expressed in Escherichia coli BL21 (DE3) assessed as NADPH consumption using alpha-KG as substrate measured after 60 mins
[2] = molecular target: T1, Isocitrate dehydrogenase [NADP] cytoplasmic; experiment: Inhibition of IDH1 R132H mutant (unknown origin) expressed in HEK293T cells assessed as inhibition of 2-HG generation measured after 48 hrs by LC-MS/MS analysis; assay type: cell-based

T1 sequence (O75874 2-414 R132H limits assumed): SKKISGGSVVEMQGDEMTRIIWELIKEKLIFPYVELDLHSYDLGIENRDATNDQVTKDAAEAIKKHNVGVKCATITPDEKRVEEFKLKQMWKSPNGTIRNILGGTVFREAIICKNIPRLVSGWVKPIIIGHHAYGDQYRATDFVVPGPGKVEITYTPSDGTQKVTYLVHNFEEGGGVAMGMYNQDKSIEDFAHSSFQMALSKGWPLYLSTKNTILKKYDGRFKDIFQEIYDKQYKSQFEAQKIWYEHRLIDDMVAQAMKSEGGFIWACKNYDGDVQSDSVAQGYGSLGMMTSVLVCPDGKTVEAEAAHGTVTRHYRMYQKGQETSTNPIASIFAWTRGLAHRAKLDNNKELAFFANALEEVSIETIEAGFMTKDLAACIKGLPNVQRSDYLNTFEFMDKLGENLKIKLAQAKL

| SMILES | IC50 [1] | IC50 [2] |
| --- | --- | --- |
| C=CC(=O)Nc1cc(-c2ccc([C@H](C)Nc3ncc(F)c(N4C(=O)OC[C@@H]4C(C)C)n3)cc2)ccc1N(C)C | 630 nM |  |
| C=CS(=O)(=O)Nc1cc(Nc2ccc([C@H](C)Nc3ncc(F)c(N4C(=O)OC[C@@H]4C(C)C)n3)cc2)ccc1N(C)C | 151 nM | 367 nM |
| C=CS(=O)(=O)Nc1ccc(Nc2ccc([C@H](C)Nc3ccc(C#N)cn3)cc2)cc1N(C)C | 6320 nM |  |
| C=CS(=O)(=O)NC1CCCN(c2ccc([C@H](C)Nc3ncc(F)c(N4C(=O)OC[C@@H]4C(C)C)n3)cc2)C1 (some centres not stated) | 119 nM | 214 nM |
| C=CC(=O)NC1CCN(c2ccc([C@H](C)Nc3ncc(F)c(N4C(=O)OC[C@@H]4C(C)C)n3)cc2)CC1 | 187 nM | 462 nM |
| CCS(=O)(=O)Nc1ccc(Nc2ccc([C@H](C)Nc3ccc(C#N)cn3)cc2)cc1N(C)C | 2770 nM |  |
| C=CS(=O)(=O)N1CCC(Nc2ccc([C@H](C)Nc3ncc(F)c(N4C(=O)OC[C@@H]4C(C)C)n3)cc2)CC1 | 42 nM | 129 nM |
| C=CS(=O)(=O)NC1CCN(c2ccc([C@H](C)Nc3nccc(N4C(=O)OC[C@@H]4C(C)C)n3)cc2)CC1 | 192 nM | 37 nM |

Further lines, results first:

| IC50 [1] | IC50 [2] | SMILES |
| --- | --- | --- |
| 898 nM |  | C=CC(=O)Nc1ccc(Nc2ccc([C@H](C)Nc3nccc(N4C(=O)OC[C@@H]4C(C)C)n3)cc2)cc1N1CCN(CC)CC1 |
| 741 nM |  | CCC(=O)Nc1cc(-c2ccc([C@H](C)Nc3ncc(F)c(N4C(=O)OC[C@@H]4C(C)C)n3)cc2)ccc1N(C)C |
| > 10000 nM | 10000 nM | CCC(=O)Nc1ccc(Nc2ccc([C@H](C)Nc3ncc(F)c(N4C(=O)OC[C@@H]4C(C)C)n3)cc2)cc1N1CCOCC1 |
| 594 nM |  | CCS(=O)(=O)N1CCC(Nc2ccc([C@H](C)Nc3nccc(N4C(=O)OC[C@@H]4C(C)C)n3)cc2)CC1 |
| 205 nM | 288 nM | C=CC(=O)Nc1cc(Nc2ccc([C@H](C)Nc3ncc(F)c(N4C(=O)OC[C@@H]4C(C)C)n3)cc2)ccc1N1CCOCC1 |
| 48 nM | 1250 nM | C=CS(=O)(=O)Nc1ccc(Nc2ccc([C@H](C)Nc3ncc(F)c(N4C(=O)OC[C@@H]4C(C)C)n3)cc2)cc1N(C)C |
| 55 nM | 4750 nM | C=CS(=O)(=O)Nc1ccc(Nc2ccc([C@H](C)Nc3ncc(F)c(N4C(=O)OC[C@@H]4C(C)C)n3)cc2)cc1OC |
| > 10000 nM | 10000 nM | CC(C)[C@H]1COC(=O)N1c1nc(N[C@@H](C)c2ccc(Nc3ccc(NC(=O)CCl)c(N4CCOCC4)c3)cc2)ncc1F |
| 547 nM |  | C=CS(=O)(=O)Nc1ccc(Nc2ccc([C@H](C)Nc3nccc(N4C(=O)OC[C@@H]4C(C)C)n3)cc2)cc1N1CCN(CC)CC1 |
| 2760 nM |  | CCC(=O)Nc1ccc(Nc2ccc([C@H](C)Nc3nccc(N4C(=O)OC[C@@H]4C(C)C)n3)cc2)cc1N1CCN(CC)CC1 |
| 87 nM | 1500 nM | C=CS(=O)(=O)Nc1ccc(Nc2ccc([C@H](C)Nc3ncc(F)c(N4C(=O)OC[C@@H]4C(C)C)n3)cc2)cc1N1CCOCC1 |
| 161 nM | 171 nM | C=CS(=O)(=O)N1CCC(Nc2ccc([C@H](C)Nc3nccc(N4C(=O)OC[C@@H]4C(C)C)n3)cc2)CC1 |
